According to US20260317367A1, “SALTS INCLUDING CRYSTALLINE SALTS OF 25-HYDROXY-CHOLEST-5-EN-3-SULFATE AND METHODS FOR PREPARING SAME” (Durect Corporation, priority 2022, published 2026):
Counter-ions that a name gives are not always drawn.

Columns and labels:
Assay type in all cases: physicochemical
[1] = Solid-state chemical stability of 25HC3S salts at 2-8° C., 60° C. and 80° C. (HPLC assay and degradation products); conditions: for % Impurities, Total / % Impurities, 25-HC: ND = Not Detected; for Overall physical and chemical stability (in words): 60° C.; for % Impurities, 25-HC: 25-Hydroxy-Cholesterol
Method in brief: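 Crystalline 25HC3S salts (~25 mg powder per vial) stored at 2-8° C. or 80° C., pulled at 3 and 6 weeks; some 3-week 2-8° C. vials moved to 60° C. for 1 week. Dissolved in 100% methanol (sonication/vortexing, centrifugation or dilution), then HPLC against 25HC3S sodium standards (0.75-1.25 mg/mL) for assay and degradants.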

[2] = Angle of repose of 25HC3S salts; conditions: listed as 25HC3S diethanolamine
Method in brief: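 About 2 g of salt powder was poured through a 7 mm inner-diameter tube into a 21.14 mm rubber O-ring, forming a cone of fixed diameter. Cone height was measured with calipers and the angle of repose was calculated from it. Flow was classified per USP<1174>.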

[3] = Hausner ratio and compressibility index of 25HC3S salts; conditions: listed as 25HC3S diethanolamine
Method in brief: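 Powder poured into a 5 mL graduated cylinder to about 5.0 mL (Vo), tapped 200 then 100 more times on a hard surface; final volume Vf recorded after 300 taps. Compressibility index and Hausner ratio calculated from Vo and Vf; flow character classed per USP <1174>.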

[4] = Overall rank order of powder flowability (angle of repose and Hausner ratio)
Text: Table C5 was generated by adding the relative rank order of the 25HC3S salts for angle of repose and Hausner ratio results, and creating an Over All Rank Order of the salts powder flowability. The salts with the lower overall rank order score had better powder flowability.

[5] = Thermogravimetric analysis (TGA), weight loss; conditions: up to 175° C.
Method in brief: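 Mettler-Toledo TGA/DSC3, calibrated with indium, tin and zinc, balance checked with calcium oxalate. Sample in a hermetically sealed aluminium pan with pierced lid, heated under nitrogen from ambient to 350° C at 10° C/min. Weight loss reported against sample temperature.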

[6] = 2-8° C., 3 wk, listed as 25HC3S diethanolamine
[7] = 2-8° C., 5 wk, listed as 25HC3S diethanolamine
[8] = 80° C., 3 wk, listed as 25HC3S diethanolamine
[9] = 80° C., 5 wk, listed as 25HC3S diethanolamine
[10] = 80° C., 5 wk, 50400 min, listed as 25HC3S diethanolamine
[11] = rank, lower is better flow, listed as 25HC3S diethanolamine

## CC(CCCC(C)(C)O)C1CCC2C3CC=C4CC(OS(=O)(=O)O)CCC4(C)C3CCC12C (centres unmarked) [Salt #10]
[1]; 2-8° C., 3 wk, 30240 min, listed as 25HC3S diethanolamine
  Assay: 100.2 % w/w
[1]; [6]
  % Impurities, Total: 1.8%
  % Impurities, 25-HC: 0.4%
[1]; 2-8° C., 5 wk, 50400 min, listed as 25HC3S diethanolamine
  Assay: 107.0 % w/w
[1]; [7]
  % Impurities, Total: 1.9%
  % Impurities, 25-HC: 0.4%
[1]; 2-8° C., 80° C.
  Overall physical and chemical stability (in words): physically and chemically stable
[1]; 2-8° C., 80° C., listed as diethanolamine
  Overall physical and chemical stability (in words): relatively stable
[1]; [8]
  % Impurities, 25-HC: 0.9%
  % Impurities, Total: 2.8%
[1]; [9]
  % Impurities, 25-HC: 1.2%
  % Impurities, Total: 3.5%
[1]; 80° C.
  Stressed stability at 80° C. (in words): good, stressed stability
[1]; 80° C., 3 wk, vs 2-8° C., 30240 min, listed as 25HC3S diethanolamine, 30240 min
  % Recovery: 99.4%
[1]; 80° C., 3 wk, 30240 min, listed as 25HC3S diethanolamine
  Assay: 99.6 % w/w
[1]; 80° C., 5 weeks
  Physical and chemical solid-state stability (comments): Stable after 5 weeks at 80 °C physically and chemically.
[1]; [10]
  % Recovery, 2-8° C./5 wk vs 80° C./5 wk: 97.7%
  Assay: 104.5 % w/w
[1]; solid state, 80° C., 5 weeks
  Stability after 5 weeks at 80° C. (in words): stable
[2]; classification by angle of repose
  Flow Property per USP<1174> Powder Flow: Passable - may hang up
[2]
  Angle of Repose: 49.2 degrees
[2]; rounded whole number
  Angle of Repose, Rounded Whole Number: 49 degrees
[3]; Table C3 heads this index in %
  Compressibility Index: 34
[3]
  Hausner Ratio: 1.52
[4]; angle of repose and compressibility index/Hausner ratio combined, listed as diethanolamine
  Powder flowability, overall (in words): poorer flowability
[4]; [11]
  Angle of Repose Rank Order: 14
  Hausner Ratio Rank Order: 9
[4]; sum of both ranks, lower is better flow, listed as 25HC3S diethanolamine
  Overall Rank Order (Total Score): 23
[5]
  Weight loss by TGA up to 175° C. (in words): Negligible weight loss
